# Source: ChEMBL document CHEMBL6127009, “Discovery of L15 as a novel Vif PROTAC degrader with antiviral activity against HIV-1” (Bioorg Med Chem Lett, 2024)
# The source made the active and inactive calls. The rule behind the calls is not given here.
# Legend:
# [1] = tested on: Human immunodeficiency virus 1; experiment: Antiviral activity against HIV-1 IIIB infected in TZM-bl cells; type: functional, organism-based; conditions: Human immunodeficiency virus 1, IIIB
# [2] = Cytotoxicity against human TZM-bl cells; type: toxicity, cell-based
# [3] = Therapeutic index, ratio of CC50 for human TZM-bl cells to EC50 for HIV IIIB infected in TZM-bl cells; type: toxicity, cell-based; conditions: read-out: Ratio CC50/EC50
# [4] = target: T1, Protein cereblon/Virion infectivity factor (Human immunodeficiency virus type 1 group M subtype B (isolate NY5)(HIV-1)) (UniProt Q96SW2+P12504); experiment: PROTAC activity at CRBN (unknown origin)/Vif in HIV-1 TREX-hvif-15 cells assessed as reduction in Vif protein level at 50 uM by Western blotting analysis; type: cell-based; conditions: TREX-hvif-15 cell
# T1 sequence (P12504 whole entry, looked up): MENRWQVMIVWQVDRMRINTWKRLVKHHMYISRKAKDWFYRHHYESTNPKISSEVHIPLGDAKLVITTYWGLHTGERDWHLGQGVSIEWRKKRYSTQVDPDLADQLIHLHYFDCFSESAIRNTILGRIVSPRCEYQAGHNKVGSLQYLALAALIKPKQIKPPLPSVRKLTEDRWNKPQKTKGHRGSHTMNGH
# T1 sequence (Q96SW2 whole entry, looked up): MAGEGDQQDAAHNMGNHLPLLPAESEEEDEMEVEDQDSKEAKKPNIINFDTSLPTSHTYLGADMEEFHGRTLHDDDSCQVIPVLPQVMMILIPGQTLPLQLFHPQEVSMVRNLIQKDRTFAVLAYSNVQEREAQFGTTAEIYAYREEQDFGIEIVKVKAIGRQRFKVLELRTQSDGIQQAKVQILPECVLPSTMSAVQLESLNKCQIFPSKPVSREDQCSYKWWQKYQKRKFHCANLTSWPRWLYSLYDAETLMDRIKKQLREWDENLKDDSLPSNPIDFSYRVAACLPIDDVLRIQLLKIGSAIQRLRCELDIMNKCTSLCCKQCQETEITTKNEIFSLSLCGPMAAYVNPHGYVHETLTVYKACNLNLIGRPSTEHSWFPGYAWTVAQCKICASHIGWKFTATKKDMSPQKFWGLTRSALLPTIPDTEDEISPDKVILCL
# [5] = tested on: Human immunodeficiency virus 1; experiment: Antiviral activity against HIV-1 9498 infected in C8166 cells; type: functional, organism-based; conditions: Human immunodeficiency virus 1, 9498, C8166
# [6] = target: T1, Protein cereblon/Virion infectivity factor (Human immunodeficiency virus type 1 group M subtype B (isolate NY5)(HIV-1)); experiment: PROTAC activity at CRBN (unknown origin)/Vif in HIV-1 TREX-hvif-15 cells assessed as reduction in Vif protein level at 50 uM pretreated with MG132 followed by compound addition and measured after 24 hrs by Western blotting analysis; type: cell-based; conditions: TREX-hvif-15 cell
# [7] = target: T1, Protein cereblon/Virion infectivity factor (Human immunodeficiency virus type 1 group M subtype B (isolate NY5)(HIV-1)); experiment: PROTAC activity at CRBN (unknown origin)/Vif in HIV-1 TREX-hvif-15 cells assessed as reduction in Vif protein level incubated for 24 hrs by Western blotting analysis; type: cell-based; conditions: TREX-hvif-15 cell, dose 3.125-50 µM
# [8] = target: T1, Protein cereblon/Virion infectivity factor (Human immunodeficiency virus type 1 group M subtype B (isolate NY5)(HIV-1)); experiment: PROTAC activity at CRBN (unknown origin)/Vif in HIV-1 TREX-hvif-15 cells assessed as reduction in Vif protein level at 100 uM incubated for 24 hrs by Western blotting analysis; type: cell-based; set-up: scale not given: the % may be the effect or the level left; conditions: TREX-hvif-15 cell
# [9] = Cytotoxicity against human PBMCs; type: toxicity, cell-based, PBMC
# [10] = tested on: Human immunodeficiency virus 1; experiment: Antiviral activity against HIV-1 KIZ002 infected in PHA-P stimulated PBMCs; type: functional, organism-based; conditions: Human immunodeficiency virus 1, KIZ002, PBMC
# [11] = tested on: Human immunodeficiency virus 1; experiment: Antiviral activity against HIV-1 WAN infected in PHA-P stimulated PBMCs; type: functional, organism-based; conditions: Human immunodeficiency virus 1, WAN, PBMC
# [12] = tested on: Human immunodeficiency virus 1; experiment: Antiviral activity against HIV1 at 50 uM measured after 8 hrs; type: functional, organism-based
# [13] = tested on: Human immunodeficiency virus 1; experiment: Antiviral activity against HIV-1 IIIB infected in C8166 cells; type: functional, organism-based; conditions: Human immunodeficiency virus 1, IIIB
# [14] = tested on: Human immunodeficiency virus 1; experiment: Antiviral activity against HIV-1 G140S/Q148H infected in C8166 cells; type: functional, organism-based; conditions: Human immunodeficiency virus 1, G140S/Q148H
# [15] = tested on: Human immunodeficiency virus 1; experiment: Antiviral activity against HIV-1 2802 infected in C8166 cells; type: functional, organism-based; conditions: Human immunodeficiency virus 1, 2802, C8166
# [16] = tested on: Human immunodeficiency virus 1; experiment: Antiviral activity against HIV-1 4755-5 infected in C8166 cells; type: functional, organism-based; conditions: Human immunodeficiency virus 1, 4755-5, C8166
# [17] = tested on: Human immunodeficiency virus 1; experiment: Antiviral activity against HIV-1 A17 infected in C8166 cells; type: functional, organism-based; conditions: Human immunodeficiency virus 1, A17, C8166
# [18] = tested on: Human immunodeficiency virus 1; experiment: Antiviral activity against HIV1 at 1 uM measured after 2 to 4 hrs; type: functional, organism-based; conditions: time 2-4 hrs
# [19] = tested on: Human immunodeficiency virus 1; experiment: Antiviral activity against HIV1 at 1 uM measured after 8 hrs; type: functional, organism-based
compound,measurement,setting,value
COc1ccc(O)cc1NC(=O)c1c(N)cccc1Sc1ccc([N+](=O)[O-])cc1,EC50,[1],5.97 µM
same,CC50,[2],> 200 µM
same,selectivity ratio,[3],> 33.5
same,Activity,[4],inactive
enfuvirtide,EC50,[5],> 10 µM
COc1ccc(OCC(=O)NCCOCCOCCNc2cccc3c2C(=O)N(C2CCC(=O)N(C)C2=O)C3=O)cc1NC(=O)c1c(N)cccc1Sc1ccc([N+](=O)[O-])cc1 (stereo unspecified),Activity,[6],inactive
COc1ccc(O)cc1NC(=O)c1c(N)cccc1S(=O)(=O)c1ccc([N+](=O)[O-])cc1,EC50,[1],2.14 µM
same,CC50,[2],> 200 µM
same,selectivity ratio,[3],> 93.5
same,Activity,[4],inactive
COc1ccc(OCC(=O)NCCOCCOCCNc2cccc3c2C(=O)N(C2CCC(=O)NC2=O)C3=O)cc1NC(=O)c1c(N)cccc1Sc1ccc([N+](=O)[O-])cc1 (stereo unspecified),EC50,[1],33.4 µM
same,CC50,[2],> 200 µM
same,selectivity ratio,[3],> 6
same,Activity,[4],Active
same,Activity,[7],Dose-Dependent Effect
same,Activity,[8],100%
same,Activity,[6],inactive
same,CC50,[9],> 200 µM
same,EC50,[10],10.5 µM
same,EC50,[11],8.76 µM
same,Activity,[12],Active
same,EC50,[13],10.5 µM
same,EC50,[14],8.43 µM
same,EC50,[15],7.3 µM
same,EC50,[5],9.65 µM
same,EC50,[16],13.6 µM
same,EC50,[17],> 100 µM
CC(C)CN(C[C@@H](O)[C@H](Cc1ccccc1)NC(=O)O[C@H]1CO[C@H]2OCC[C@H]21)S(=O)(=O)c1ccc(N)cc1 [DARUNAVIR],EC50,[15],< 0.032 µM
Nc1ccn([C@@H]2CS[C@H](CO)O2)c(=O)n1 [LAMIVUDINE],EC50,[10],0.09 µM
same,EC50,[11],0.15 µM
same,Activity,[18],Active
same,Activity,[19],inactive
same,EC50,[13],0.16 µM
same,EC50,[14],5.61 µM
same,EC50,[16],76.9 µM
same,EC50,[17],0.28 µM
